PMC12610721, “The Action of Cannabidiol on Doxycycline Cytotoxicity in Human Cells—In Vitro Study” (Molecules, 2025)
In brackets after ≈: the same amount, converted by molar mass. Like-named read-outs stand apart in the source and are kept apart here.

What was measured:
[1] = tested on: normal HK-2 cells; set-up: method as in PMID 34644207; conditions: HK-2, 20 µg/mL, without triggering apoptosis; cited from earlier work
[2] = tested on: HepG2 cells; assay: DNA synthesis (BrdU assay)
Experimental: (§1) This innovative study evaluated the effects of cannabidiol (Cannabis sativa L.) on doxycycline-induced toxicity using three cell cultures: neural—SH-SY5Y, liver—HepG2, and kidney—HEK-293. […] A series of cytotoxicity assays included assessments of mitochondrial activity, lysosomal activity, cell membrane integrity, DNA synthesis, and cell proliferation. Based on the obtained results, IC50 values for doxycycline, both in monotherapy and in combination with CBD, were calculated, along with evaluations of ROS, death of cells, and morphology. The interaction between the drug and CBD was further analyzed by the combination index (CI).
(§2) Cell proliferation was evaluated using the BrdU assay (Cell Proliferation ELISA, BrdU [colorimetric], Roche, Switzerland) according to the manufacturer’s instructions. Briefly, BrdU was incorporated into newly synthesized DNA in place of thymidine during cell division. Incorporated BrdU was detected using an anti-BrdU antibody conjugated with peroxidase. The enzymatic reaction product was quantified by measuring absorbance. Absorbance was measured at 370 nm and 492 nm using the Synergy 2 Multi-Mode Microplate Reader (BioTek® Instruments Inc., Winooski, VT, USA), with a blank as reference.
(§3) To determine the types of interaction that occur when cells are exposed to combinations of DOX and CBD, the method established by Chou and Talalay was used in this study. The dose–effect relationships of the individual and combined test compounds were modeled biometrically using the Median-Effect Equation based on the Mass Action Law.fa/fu = (D/Dm)^m
(§4) In this isobolographic analysis, the combination index (CI) is a quantitative parameter used to evaluate the type and strength of interactions between multiple compounds. For all combinations, CI values were calculated across a range of affected fractions (Fa) from 0.05 to 0.95 (corresponding to 5–95% toxicity). CI values of 0.9–1.1, <0.9, and >1.1 indicate additive, synergistic, and antagonistic effects, respectively.
(§5) The study was conducted in three independent experiments (n = 3). […] Cytotoxicity data were analyzed using one-way analysis of variance (ANOVA), followed by Dunnett’s post hoc test to assess significance relative to the negative control. The half-maximal inhibitory concentration (IC50), representing the drug or drug–CBD mixture concentration required to inhibit cell viability by 50%, was calculated using GraphPad Prism 5.0. Statistical comparisons between IC50 values were performed using ANOVA followed by Tukey’s post hoc test. Differences were considered statistically significant at p ≤ 0.05.

[3] = tested on: HEK-293 cells; assay: DNA synthesis (BrdU assay); conditions: for doxycycline concentration that inhibited DNA synthesis: HEK-293, BrdU, 72 h
Experimental: as §1, §2, §3, §4, §5

[4] = tested on: SH-SY5Y cells; assay: DNA synthesis (BrdU assay); conditions: 72 h
Experimental: as §1, §2, §3, §4, §5

[5] = tested on: HepG2 cells; set-up: method as in PMID 22116976; conditions: HepG2, 20 µM (10.3 µg/mL); inhibited mitochondrial activity, membrane damage, increased ROS; cited from earlier work
[6] = tested on: HepG2 cells; assay: oxidative stress, ROS production (DCFH assay); format: cell-based, human; conditions: HepG2, DCFH-DA, 72 h
Experimental: (§6) Intracellular ROS levels were evaluated using the redox-sensitive fluorescent dye DCFH-DA [87]. Briefly, the cells were incubated with 5 μM DCFH-DA for 1 h at 37 °C in the dark. Thereafter, the tested compounds were added at the concentrations used in the study. Cells treated with 500 μM hydrogen peroxide (H2O2) served as a positive control. After 72 h of incubation, the fluorescence of 2′,7′-dichlorofluorescein (DCF) was measured. Fluorescence was recorded at 485/530 nm using a fluorescence microplate reader (BioTek® Instruments Inc., Winooski, VT, USA).

[7] = tested on: HEK-293 cells; assay: oxidative stress, ROS production (DCFH assay); format: cell-based, human
Experimental: as §6

[8] = tested on: SH-SY5Y cells; assay: oxidative stress, ROS production (DCFH assay); format: cell-based, human; conditions: DCFH-DA, 72 h
Experimental: as §6

[9] = tested on: HepG2 cells; assay: cell membrane integrity (LDH leakage assay)
Experimental: as §1
(§7) Cell membrane integrity was assessed by measuring lactate dehydrogenase (LDH) release, using a commercially available Cytotoxicity Detection Kit (LDH) (Roche Diagnostics, Warsaw, Poland). After incubation, 100 µL of culture medium (cell-free) from each well was transferred to the corresponding wells of an optically clear 96-well flat-bottom microplate, and 100 µL of reaction mixture was added to each well. The plate was then incubated for 30 min at room temperature in the dark. To stop the reaction, 50 µL of 1 M HCl was added to each well. Absorbance was measured at 492 nm using the Synergy 2 Multi-Mode Microplate Reader (BioTek® Instruments Inc., Winooski, VT, USA), with a blank as reference.
as §3, §4, §5

[10] = tested on: HEK-293 cells; assay: cell membrane integrity (LDH leakage assay)
Experimental: as §1, §7, §3, §4, §5

[11] = tested on: SH-SY5Y cells; assay: cell membrane integrity (LDH leakage assay); conditions: 72 h
Experimental: as §1, §7, §3, §4, §5

[12] = tested on: SH-SY5Y human neuroblastoma cells; set-up: method as in PMID 33429042; conditions: 24 h, 4 ng/mL to 4.4 µg/mL; cited from earlier work
[13] = tested on: HepG2 cells; assay: series of five cytotoxicity assays (MTT, NRU, TPC, LDH, BrdU), summary; format: cell-based; conditions: Homo sapiens, HepG2, 72 h, across MTT, read-out: IC50 values, range depending on the cellular parameter evaluated
Experimental: The cultured cells, for 72 h, were exposed to doxycycline (at concentrations ranging from 1.56 μg/mL to 200 μg/mL), both alone and in combination with CBD: 1.56 μg/mL (DOX + C1) and 3.125 μg/mL (DOX + C2) at two non-toxic doses (Supplementary Materials). A series of cytotoxicity assays included assessments of mitochondrial activity, lysosomal activity, cell membrane integrity, DNA synthesis, and cell proliferation.
The metabolic activity of viable cells was assessed by measuring dehydrogenase activity [82]. After exposing the cell cultures to the test compounds, 10 µL of MTT solution (5 mg/mL in PBS) was added to each well of a 96-well plate. […] The plate was shaken for 15 min at room temperature and transferred to a Synergy 2 Multi-Mode Microplate Reader (BioTek® Instruments Inc., Winooski, VT, USA) to measure absorbance at 570 nm, using a blank as reference. Cytotoxicity was expressed as a percentage relative to the negative control [83].
This method is based on staining viable cells with neutral red, a dye that readily diffuses through the plasma membrane and accumulates in lysosomes [84]. […] After 10 min of shaking, the absorbance of the extracted dye was measured at 540 nm using a Synergy 2 Multi-Mode Microplate Reader (BioTek® Instruments Inc., Winooski, VT, USA), with a blank as reference. Cytotoxicity was expressed as a percentage relative to the negative control [83]. […]

[14] = tested on: renal cancer cells; set-up: method as in PMID 34644207; conditions: cited from earlier work
[15] = tested on: SH-SY5Y cells; set-up: method as in earlier work; conditions: 48 h exposure, cited from earlier work
[16] = tested on: HEK-293 cells; assay: series of five cytotoxicity assays (MTT, NRU, TPC, LDH, BrdU), summary; format: cell-based; conditions: Homo sapiens, HEK293, 72 h, read-out: IC50 values, range depending on the cellular parameter assessed
[17] = tested on: rat neuronal cell line PC12; set-up: method as in PMID 33798505; conditions: PC12, 24 h, 20 µM (10.26 µg/mL); cited from earlier work

In the case of C[C@H]1c2cccc(O)c2C(=O)C2=C(O)[C@]3(O)C(=O)C(C(N)=O)=C(O)[C@@H](N(C)C)[C@@H]3[C@@H](O)[C@@H]21 [DOX, doxycycline hyclate], the “effect on DNA synthesis” value [1] is listed as “inhibited DNA synthesis”, the “doxycycline concentration that inhibited DNA synthesis” value ([2]; HepG2, BrdU, 72 h) is listed as 12.5 µg/mL and the IC50 ([2]; Homo sapiens, HepG2, 72 h) is listed as 24 ± 0.4 µg/mL. For the same compound, the “doxycycline concentration that inhibited DNA synthesis” value [3] was 3.12 µg/mL, the “doxycycline concentration that inhibited DNA synthesis” value ([3]; listed as doxycycline) was 3.125 µg/mL and the IC50 ([3]; Homo sapiens, HEK293, 72 h) was 8.9 ± 0.1 µg/mL. For the same compound, the “doxycycline concentration that inhibited DNA synthesis” value ([4]; BrdU) was 12.5 µg/mL, the IC50 ([4]; Homo sapiens) was 15.6 ± 0.7 µg/mL and the “effect on cell viability” value [5] was “reduced cell viability”. The “doxycycline concentration at which free radical (ROS) production increased significantly” value [6] was 12.5 µg/mL, the “doxycycline concentration from which free radical (ROS) production increased” value [7] was “lowest tested concentration” and the “doxycycline concentration from which free radical (ROS) production increased” value [8] was 1.56 µg/mL. The “doxycycline concentration that disrupted membrane integrity” value ([9]; HepG2, LDH, 72 h) was 50 µg/mL, the IC50 ([9]; Homo sapiens, HepG2, 72 h) was > 200 µg/mL and the “doxycycline concentration that caused degradation of the cell membrane” value ([10]; HEK-293, LDH, 72 h) was 6.25 µg/mL. The IC50 ([10]; Homo sapiens, HEK293, 72 h) was 30.4 ± 2.7 µg/mL, the IC50 ([11]; Homo sapiens) was 149 ± 6.5 µg/mL and the “doxycycline concentration that induced cell membrane breakdown” value ([11]; LDH) was 12.5 µg/mL. The “effect on production of reactive oxygen species (ROS)” value [12] was “protective effect”, the IC50 [13] was 13.4 to 200 µg/mL (≈ 30.2 to 450 µM) and the “concentration that significantly inhibited protein synthesis and mitochondrial complex activity” value ([14]; cells of neoplastic origin) was 5 µg/mL. For the same compound, the “concentration that induced apoptosis” value ([14]; renal cancer cells) was 10 µg/mL, the IC50 ([15]; converted value in brackets) was 1.9 µg/mL and the IC50 ([15]; read-out: IC50) was 3.7 ± 0.1 µM. The IC50 [16] was 8.9 to 30.4 µg/mL (≈ 20 to 68.4 µM) and the neurotoxicity [17] was “no signs of neurotoxicity”.
